Type in all cases: in vivo
In assay [1] the test system is Myzus persicae. The experiment in a line: Myzus persicae spray test. As to conditions: foliar, 120 h, application rate 100 g/ha, Chinese cabbage leaf discs infested by all stages, after 5 days, read-out: efficacy. As to the method: Myzus persicae—Spray Test [table] To produce a suitable active compound formulation, 1 part by weight of active compound is dissolved with the specified parts by weight of solvent and made up to the desired concentration with water containing an emulsifier concentration of 1000 ppm. To produce further test concentrations, the formulation is diluted with emulsifier-containing water. Discs of Chinese cabbage leaves (Brassica pekinensis) infested by all stages of the green peach aphid (Myzus persicae) are sprayed with an active compound formulation of the desired concentration. After 5 days, the efficacy in % is determined. 100% means that all the aphids have been killed; 0% means that no aphids have been killed.

The next assay relates to Musca domestica. The experiment in a line: Musca domestica test. Particulars: application rate 100 ppm; adult houseflies, sponge with sugar solution; after 2 days. As to the method:
Musca domestica Test Solvent: Dimethyl Sulfoxide To produce a suitable active compound formulation, 10 mg of active compound are mixed with 0.5 ml of dimethyl sulfoxide, and the concentrate is diluted with water to the desired concentration. Vessels containing a sponge treated with sugar solution and the desired concentration of active compound formulation are populated with 10 adult houseflies (Musca domestica). After 2 days, the kill in % is determined. 100% means that all of the flies have been killed; 0% means that none of the flies have been killed.

The next assay concerns Tetranychus urticae. The experiment in a line: Tetranychus urticae spray test, OP-resistant. Particulars: application rate 100 g/ha, bean leaf discs infested with all stages, after 6 days. As to the method: Tetranychus urticae—Spray Test, OP-Resistant
(§1) To produce a suitable active compound formulation, 1 part by weight of active compound is dissolved with the specified parts by weight of solvent and made up to the desired concentration with water containing an emulsifier concentration of 1000 ppm. To produce further test concentrations, the formulation is diluted with emulsifier-containing water.
Discs of bean leaves (Phaseolus vulgaris) infested with all stages of the greenhouse red spider mite (Tetranychus urticae) are sprayed with an active compound formulation of the desired concentration.
After 6 days, the efficacy in % is determined. 100% means that all the spider mites have been killed; 0% means that no spider mites have been killed.

Assay [2] deals with Ctenocephalides felis. Briefly: Ctenocephalides felis oral test. As to conditions: application rate 100 ppm in citrated cattle blood; unfed adult cat fleas; after 2 days. As to the method:
Ctenocephalides felis—Oral Test Solvent: Dimethyl Sulfoxide To produce a suitable active compound formulation, 10 mg of active compound are mixed with 0.5 ml of dimethyl sulfoxide. Dilution with citrated cattle blood gives the desired concentration. About 20 unfed adult cat fleas (Ctenocephalides felis) are placed into a chamber which is closed at the top and bottom with gauze. A metal cylinder whose bottom end is closed with parafilm is placed onto the chamber. The cylinder contains the blood/active compound formulation, which can be imbibed by the fleas through the parafilm membrane. After 2 days, the kill in % is determined. 100% means that all of the fleas have been killed; 0% means that none of the fleas have been killed.

The test system of assay [3] is Ctenocephalides felis. Briefly: Ctenocephalides felis in vitro contact test with adult cat fleas. As to conditions: application rate 5 μg/cm^2 (=500 g of ai/ha); adult cat fleas in coated glass tube; after 48 h; dead or moribund. As to the method: Ctenocephalides felis—In Vitro Contact Tests with Adult Cat Fleas For the coating of the test tubes, 9 mg of active compound are first dissolved in 1 ml of acetone p.a. and then diluted to the desired concentration with acetone p.a. 250 μl of the solution are distributed homogeneously on the inner walls and the base of a 25 ml glass tube by turning and rocking on an orbital shaker (rocking rotation at 30 rpm for 2 h). With 900 ppm of active compound solution and internal surface area 44.7 cm^2, given homogeneous distribution, an area-based dose of 5 μg/cm^2 is achieved. After the solvent has evaporated off, the tubes are populated with 5-10 adult cat fleas (Ctenocephalides felis), sealed with a perforated plastic lid and incubated in a horizontal position at room temperature and ambient humidity. After 48 h, efficacy is determined. To this end, the tubes are stood upright and the fleas are knocked to the base of the tube. Fleas which remain motionless at the base or move in an uncoordinated manner are considered to be dead or moribund. […] 100% efficacy means that all the fleas were dead or moribund. 0% efficacy means that no fleas were harmed.

The subject of another assay is Phaedon cochleariae. The experiment in a line: Phaedon cochleariae spray test. As to conditions: foliar, 168 h, application rate 100 g/ha, larvae on Chinese cabbage leaf discs, after 7 days, read-out: efficacy. As to the method: Phaedon cochleariae—Spray Test
as §1
Discs of Chinese cabbage leaves (Brassica pekinensis) are sprayed with an active compound formulation of the desired concentration and, after drying, populated with larvae of the mustard beetle (Phaedon cochleariae).
After 7 days, the efficacy in % is determined. 100% means that all the beetle larvae have been killed; 0% means that no beetle larvae have been killed.

Assay [4] relates to Myzus persicae. The experiment in a line: Myzus persicae oral test. As to conditions: 120 h, application rate 4 ppm, mixed population of green peach aphids, after 5 days, read-out: efficacy. As to the method: Myzus persicae—Oral Test [table] To produce a suitable active compound formulation, 1 part by weight of active compound is dissolved with the stated parts by weight of solvent and made up to the desired concentration with water. 50 μl of the active compound formulation are transferred into microtitre plates and made up to a final volume of 200 μl with 150 μl of IPL41 insect medium (33%+15% sugar). Subsequently, the plates are sealed with parafilm, which a mixed population of green peach aphids (Myzus persicae) within a second microtitre plate is able to puncture and imbibe the solution. After 5 days, the efficacy in % is determined. 100% means that all the aphids have been killed; 0% means that no aphids have been killed.

The test system of the next assay is Lucilia cuprina. Briefly: Lucilia cuprina test. Particulars: application rate 100 ppm; L1 larvae on minced horsemeat; after 2 days. As to the method: Lucilia cuprina Test Solvent: Dimethyl Sulfoxide To produce a suitable active compound formulation, 10 mg of active compound are mixed with 0.5 ml of dimethyl sulfoxide, and the concentrate is diluted with water to the desired concentration. About 20 L1 larvae of the Australian sheep blowfly (Lucilia cuprina) are transferred into a test vessel containing minced horsemeat and the active compound preparation of the desired concentration. After 2 days, the kill in % is determined. 100% means that all the larvae have been killed; 0% means that no larvae have been killed.

A further assay deals with Spodoptera frugiperda. The experiment in a line: Spodoptera frugiperda spray test. As to conditions: foliar, 168 h, application rate 100 g/ha, caterpillars on maize leaf discs, after 7 days, read-out: efficacy. As to the method:
Spodoptera frugiperda—Spray Test [table] To produce a suitable active compound formulation, 1 part by weight of active compound is dissolved with the specified parts by weight of solvent and made up to the desired concentration with water containing an emulsifier concentration of 1000 ppm. To produce further test concentrations, the formulation is diluted with emulsifier-containing water. Leaf discs of maize (Zea mays) are sprayed with an active compound formulation of the desired concentration and, after drying, populated with caterpillars of the fall armyworm (Spodoptera frugiperda). After 7 days, the efficacy in % is determined. 100% means that all the caterpillars have been killed; 0% means that no caterpillar has been killed.

Experimental findings from patent publication US20200128830A1, “FUSED BICYCLIC HETEROCYCLE DERIVATIVES AS PESTICIDES” (Bayer Aktiengesellschaft, priority 2017, published 2020) are described below.

On to `CCS(=O)(=O)c1c(-c2nc3cc(C(F)(F)F)ncc3n2C)sc2cc(C(F)(F)F)sc12` [I-7], for which the pest or weed control at 100 g/ha in the assay with Myzus persicae [1] amounted to 100%. For the same molecule, the entries for the “efficacy (kill in %)” value in the assay with Musca domestica and with Ctenocephalides felis [2] were 80% and 95%, respectively. For the same molecule, the efficacy in the assay on Tetranychus urticae amounted to 90%.

On to `CCS(=O)(=O)c1c(-c2nc3cc(C(F)(F)F)ncc3n2C)sc2nc(C(F)(F)F)sc12` [I-10], for which the “efficacy (kill in %)” value with Musca domestica came to 80%; in the assay on Lucilia cuprina it was 100%; with Ctenocephalides felis [2] it was 80%. For the same molecule, the efficacy in the assay on Ctenocephalides felis [3] is listed as 100%. Besides, the pest or weed control at 100 g/ha in the assay on Phaedon cochleariae and in the assay with Spodoptera frugiperda was 100% in each case. For the same molecule, the pest or weed control at 4 ppm in the assay with Myzus persicae [4] turned out to be 90%.

In the case of `CCS(=O)(=O)c1c(-c2nc3cc(C(F)(F)F)ncc3n2C)sc2nc(C(F)(F)F)oc12` [I-12], the pest or weed control at 100 g/ha with Myzus persicae [1], with Phaedon cochleariae and in the assay with Spodoptera frugiperda was 100% throughout. In addition, the “efficacy (kill in %)” value is on record as 85% with Musca domestica and 80% in the assay with Ctenocephalides felis [2]. Besides, in the assay on Tetranychus urticae, the efficacy is 90%. Further, the pest or weed control at 4 ppm in the assay on Myzus persicae [4] turned out to be 100%.

On to `CCS(=O)(=O)c1c(-c2nc3cc(C(F)(F)F)ncc3n2C)sc2c(C(N)=O)csc12` [I-15, 6-(Ethylsulfonyl)-5-[3-methyl-6-(trifluoromethyl)-3H-imidazo[4,5-c]pyridin-2-yl]thieno[3,2-b]thiophene-3-carboxamide], for which the pest or weed control at 100 g/ha in the assay with Myzus persicae [1] is 90%. Besides, the efficacy with Tetranychus urticae is reported as 90%. The pest or weed control at 4 ppm in the assay with Myzus persicae [4] was determined as 100%.
